Columns and labels:
Assay type in all cases: in vivo, Sprague-Dawley rats
[1] = test system: sensitization to D-amphetamine; experiment: Locomotor activity on D7 after D-amphetamine challenge (photoelectric cell actimetry) in the D-amphetamine sensitization protocol; details: rats given D-amphetamine 1 mg/kg i.p. D1-D3, each injection followed by 3 h gas exposure, versus sensitized rats treated with air
Protocol: (§1) To do this, adult male Sprague-Dawley rats that weighed approximately 220 g when they arrived in the laboratory were used. Throughout the study, the animals were placed under standard animalhouse conditions, in groups of 8, so as to avoid the appearance of a stress reaction subsequent to isolation. They had water and food ad libitum.
(§2) For 3 consecutive days (from D1 to D3), 8 groups of animals (8 rats per group) were administered intraperitoneally (i.p.) either D-amphetamine (amph: 1 mg/ml/kg), or a saline solution (saline: 1 ml/kg) for the control animals. […]
(§3) The locomotor activity and the righting activity of the animals were evaluated at D6, after an i.p. injection of a saline solution (1 ml/kg) in order to determine the actual effects of the treatments administered with the various gases and mixtures of gas, and on D7 after an i.p. administration of D-amphetamine (1 mg/ml/kg) in order to evaluate the effects of the gases and mixtures of gas on sensitization to D-amphetamine. […]
(§4) The results obtained (see FIGS. 1 and 2) are expressed as the mean±the standard error of the mean. […]

[2] = test system: sensitization to D-amphetamine; experiment: Stereotypic righting activity on D7 after D-amphetamine challenge (photoelectric cell actimetry) in the D-amphetamine sensitization protocol; details: rats given D-amphetamine 1 mg/kg i.p. D1-D3, each injection followed by 3 h gas exposure, versus sensitized rats treated with air
Protocol: as §1, §2, §3, §4

[3] = Overall and qualitative evaluation of the gas-treated rats (neurotoxic effect, behaviour) during the sensitization protocol; details: conclusion from locomotor and righting activity of the gas-exposed rats
Protocol: as §1, §2, §3

With argon [argon at 75 vol %] the “effect on the locomotor hyperactivity inherent to the development of sensitization to D-amphetamine” value [1] was “total inhibitory effect”, the “effect on the righting activity corresponding to the development of the sensitization to D-amphetamine” value [2] was “inhibitory effect” and the neurotoxic effect [3] was “without any neurotoxic effect being observed”.
